Like-named read-outs stand apart in the source and are kept apart here.
Experiments:
[1] = MTT-based cell viability assay (EZ-CYTOX); details: human
Procedure: (§1) To order to study impacts of DGAT inhibitors on HCV genome replication independently of the particle production, we decided to examine effects of these twelve DGAT inhibitors on the levels of viral RNA genome and cell viability in parallel. […] Then, we treated them with an increasing concentration of each DGAT inhibitor. Then, luciferase and MTT-based cell viability assays were performed to determine EC50 and CC50 (cytotoxic concentration required to kill 50% of treated cells) values, respectively.
(§2) Cell viability was measured with EZ-CYTOX (10% tetrazolium salt; Dogen, Gyeonggi-do, Korea) as described previously. Anti-HCV replication analysis using a luciferase assay was conducted as previously described.

[2] = tested on: DGATs (rat liver microsome); design: method as in PMID 23141914, PMID 23242135; details: cited from earlier work
HepG2 cells = tested on: HepG2 cells; design: method as in PMID 23242135; details: [14C] glycerol as substrate; cited from earlier work
[3] = tested on: HCV genotype 2a (Huh7.5-J6/JFH1); experiment: HCV particle production: infectivity of supernatant on naive Huh7.5 cells by real-time RT-PCR; type: cell-based, hepatitis C virus; details: 10 μM
Procedure: A922500, a commercially available DGAT-1-specific inhibitor was used as a positive control [10]. […] Therefore, we decided to examine effects of these twelve DGAT inhibitors on HCV particle production as well as RNA genome replication in parallel. For this purpose, we transfected Huh7.5 cells with in vitro-transcribed genotype 2a HCV RNAs (Huh7.5-J6/JFH1) [16] and treated them with each DGAT inhibitor for 6 and 72 h at 10 μM. HCV genome replication as well as host GAPDH RNA levels was quantitated by a real-time RT-PCR analysis. For assessment of HCV particle production, we harvested and filtered the supernatant from Huh7.5-J6/JFH1 cells treated with DGAT inhibitors and incubated the supernatant with naïve huh7.5 cells for 72 h. Then, infectivity was measured by a real-time RT-PCR analysis.
Huh7.5-J6/JFH-1 cells were seeded into 6-well plates at a density of 3 × 10^5 cells per well with DMEM containing 10% FBS. […] Total RNAs were extracted from treated cells and virus-containing media were harvested at each time point. Naïve Huh7.5 cells were infected with these virus-containing media after concentration with centricons.

recombinant DGAT-2 = tested on: recombinant DGAT-2; design: method as in PMID 23242135; details: cited from earlier work
[4] = tested on: luciferase-linked genotype 2a HCV RNAs; experiment: microbe, parasite or virus in culture; type: cell-based, hepatitis C virus; details: read-out: EC50 (HCV replication)
Procedure: as §1, §2

recombinant DGAT-1 = tested on: recombinant DGAT-1; design: method as in PMID 23242135; details: recombinant DGAT-1, [14C] oleoyl-CoA as acyl-donor; cited from earlier work
[5] = tested on: HCV NS3 (Huh7.5-J6/JFH1, genotype 2a); experiment: western blot of HCV NS3 protein in Huh7.5-J6/JFH1 cells; details: positive control
Procedure: Due to the tight coupling of viral genome replication to its protein expression, inhibition of viral RNA genome replication leads to a subsequent reduction of viral protein expression.
(A) Dose-dependent western blot analysis of Huh7.5-J6/JFH1 cells treated with increasing concentrations of 10j for 72 h by measuring protein expression levels of HCV NS3 relative to the β-actin. Daclatasvir, an NS5A inhibitor was used as a positive control. (B) Time-dependent western blot analysis of J6/JFH1 RNA-transfected Huh7.5 cells treated with 8 μM of 10j for increasing periods of time analyzed by measuring protein expression levels of HCV NS3 relative to the β-actin. (C,D) Same experiments were performed as in (A,B) to study effects of 10j on the expression levels of the NS5A protein of Huh7.5-Bart79I cells in a dose- as well as time-dependent manners.
Western blot analysis of Huh7.5-J6/JFH1 or Bart79I cells treated with 10j was conducted as previously described. Relative amounts of HNF4α proteins were quantified by using an HNF4α mouse monoclonal antibody (M04), clone 4E2 (Abnova) with the dilution of 1:1000.

[6] = Hepatitis C virus, Huh7.5, luciferase-linked genotype 2a HCV RNA in Huh7.5 cells

SMILES	CC50 [1]	IC50 [2]	TG % (10 μM in HepG2), relative [14C] triglyceride percentage (HepG2 cells)	effect on HCV particle production ([3]; 6 h (Figure 1B))	effect on HCV particle production ([3]; 72 h (Figure 1D))	IC50 (recombinant DGAT-2)	EC50 [4, 6]	IC50 (recombinant DGAT-1)	expression of viral proteins [5]	EC50 ([4]; luciferase-linked genotype 2a HCV RNA in Huh7.5 cells)
O=C(NCc1ccccn1)c1ccc2nc(COc3ccc(C45CC6CC(CC(C6)C4)C5)cc3)[nH]c2c1 [10i]	3.9 µM	20 µM	–	–	–	–	–	–	–	–
CC(C)(C)OC(=O)n1cc(/C=C/C(=O)Nc2cccc(C(=O)NCc3ccco3)c2)c2ccccc21 [5h]	5.1 µM	2.5 µM	33.2%	able to block HCV particle production	suppress the viral particle production	6.9 µM	2.1 µM	> 100 µM	–	–
CC(C)NC(=O)c1cccc(NC(=O)/C=C/c2cn(C(=O)OC(C)(C)C)c3ccccc23)c1 [5a]	3.7 µM	8.8 µM	–	able to block HCV particle production	suppress the viral particle production	6.9 µM	1.9 µM	> 100 µM	–	–
CC(C)=CCn1cc(/C=C/C(=O)N(NC(=O)c2cccc(F)c2)C(C)C)c2ccccc21 [8u]	> 10 µM	–	55.7%	–	suppress the viral particle production	> 10 µM	> 10 µM	1.5 µM	–	–
O=C(Nc1ccccc1)c1ccc2nc(COc3ccc(C45CC6CC(CC(C6)C4)C5)cc3)[nH]c2c1 [10f]	> 10 µM	> 50 µM	–	–	–	–	> 10 µM	–	–	–
COC(=O)N[C@H](C(=O)N1CCC[C@H]1c1nc(-c2ccc(-c3ccc(-c4c[nH]c([C@@H]5CCCN5C(=O)[C@@H](NC(=O)OC)C(C)C)n4)cc3)cc2)c[nH]1)C(C)C [Daclatasvir, reference compound]	–	–	–	–	–	–	–	–	able to inhibit expression of viral proteins	–
O=C(NCc1ccccc1)c1ccc2nc(COc3ccc(C45CC6CC(CC(C6)C4)C5)cc3)[nH]c2c1 [10h]	> 10 µM	> 50 µM	–	–	–	–	< 10 µM	–	–	7.7 µM
CC(C)(C)OC(=O)n1cc(/C=C/C(=O)Nc2cccc(C(=O)N3CCCC3)c2)c2ccccc21 [5c]	> 10 µM	13.2 µM	–	–	suppress the viral particle production	6.8 µM	> 10 µM	89.1 µM	–	–
CC(C)CCn1cc(/C=C/C(=O)N(NC(=O)c2cccc(F)c2)C(C)C)c2ccccc21 [8h]	> 10 µM	–	71.2%	–	suppress the viral particle production	> 10 µM	6.7 µM	20.4 µM	–	–
CC(C)CCn1cc(/C=C/C(=O)N(NC(=O)c2ccc(F)cc2)C(C)C)c2ccccc21 [8i]	> 10 µM	–	94.8%	–	suppress the viral particle production	> 10 µM	5.1 µM	2.1 µM	–	–
Cc1ccc(CNC(=O)c2cccc(NC(=O)/C=C/c3cn(C(=O)OC(C)(C)C)c4ccccc34)c2)o1 [5j]	3.4 µM	9.4 µM	–	–	suppress the viral particle production	7.4 µM	1.1 µM	> 100 µM	–	–
O=C(c1ccc2nc(COc3ccc(C45CC6CC(CC(C6)C4)C5)cc3)[nH]c2c1)N1CCCCC1 [10e]	> 10 µM	27.5 µM	–	–	–	–	> 10 µM	–	–	–
